Data published in patent US7109193B2, “Tricyclic diazepines tocolytic oxytocin receptor antagonists” (Wyeth, priority 2001, dated 2006).

Key:
[1] = biological target: T1, human oxytocin receptor (Homo sapiens, UniProt P30559); test: Oxytocin binding in Chinese Hamster Ovary cell membranes expressing human oxytocin receptors; settings: 100 nM, CHO cell membranes, [3H]oxytocin, values without parentheses, read-out: OT % inhibition @ 100% nM
T1 construct: host or cells: CHO cells (pcDNA3.1 vector)
T1 sequence (P30559 1-389): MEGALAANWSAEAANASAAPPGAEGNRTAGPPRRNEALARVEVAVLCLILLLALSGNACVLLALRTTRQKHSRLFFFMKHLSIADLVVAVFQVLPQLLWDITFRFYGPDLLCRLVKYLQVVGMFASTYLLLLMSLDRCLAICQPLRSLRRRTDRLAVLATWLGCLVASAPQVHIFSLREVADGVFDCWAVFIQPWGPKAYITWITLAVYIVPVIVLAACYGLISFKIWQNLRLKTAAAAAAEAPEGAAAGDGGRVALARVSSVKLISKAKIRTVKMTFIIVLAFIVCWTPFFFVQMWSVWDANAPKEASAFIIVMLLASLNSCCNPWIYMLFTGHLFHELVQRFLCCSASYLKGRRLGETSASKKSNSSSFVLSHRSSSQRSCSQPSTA

inhibition at 0.1 µM [1] | melting point | SMILES
-4% | 220 to 222 °C (dec.) | COc1cc(-c2ccccc2C(F)(F)F)c(Cl)cc1C(=O)N1Cc2ccc(C(=O)O)n2Cc2ccccc21 [Example 15, 10-{[6-Chloro-3-methoxy-2′-trifluoromethyl-[1,1′-biphenyl]-4-yl]carbonyl}-10,11-dihydro-5H-pyrrolo[2,1-c][1,4]benzodiazepine-3-carboxylic acid]
21% | 187 to 188 °C | COc1cc2c(cc1OC)N(C(=O)c1ccc(-c3ccccc3C(F)(F)F)c(C)c1)Cc1cccn1C2 [Example 12, 7,8-Dimethoxy-[10,11-dihydro-5H-pyrrolo[2,1-c][1,4]benzodiazepin-10-yl][2-methyl-2′-(trifluoromethyl)[1,1′-biphenyl]-4-yl]methanone]
32% | 174 to 184 °C | COc1ccccc1-c1ccc(C(=O)N2Cc3ccc(C(=O)O)n3Cc3ccccc32)cc1C [Example 9, 10-[(2′-Methoxy-2-methyl-[1,1′-biphenyl]-4-yl)carbonyl]-10,11-dihydro-5H-pyrrolo[2,1-c][1,4]benzodiazepine-3-carboxylic acid]
